The values below are quoted from earlier work in US20040043089A1, “Buguzhi agent and composition and methods of preparing and administering the same” (priority 2002, published 2004).

For the series the following is noted: literature statement.
Turning to `Cc1cc2cc3c(C)cc(=O)oc3c(C)c2o1` [Trioxsalen], the “Phototoxicity (in words)” value is on record as “weak phototoxicity”.
Take `O=c1ccc2ccc3occc3c2o1` [angelicin]: the “Phototoxicity (in words)” value is recorded as “only weakly phototoxic”.
For `COc1c2ccoc2cc2oc(=O)ccc12` [bergapten, 5-methoxypsoralen], the “Phototoxicity (in words)” value was “phototoxic”.
For the compound `COc1c2ccoc2c(OC)c2oc(=O)ccc12` [isopimpinellin], the “Phototoxicity (in words)” value is on record as “only weakly phototoxic”.
For `COc1c2occc2c(OC)c2c(=O)cc(C)oc12` [khellin], the “Phototoxicity (in words)” value is listed as “weak phototoxicity”.
Consider `CC(C)=CCc1c(O)ccc2ccc(=O)oc12` [osthenol], for which the “Phototoxicity (in words)” value is recorded as “weak phototoxicity”.
Take `COc1c(C(C)C)oc2cc3oc(=O)ccc3cc12` [peucedanin]: the “Phototoxicity (in words)” value is on record as “weak phototoxicity”.
On to `COc1c2occc2cc2ccc(=O)oc12` [xanthotoxin, 8-methoxypsoralen], for which the “Phototoxicity (in words)” value is “phototoxic”.
